SMILES strings stand for the structures.

The test system of one test is 786-0 (VHL−/−) cells. The test can be described thus: 786-0 (VHL−/−) subcutaneous tumor growth in SCID/BEIGE mice, Tempol in drinking water. The format is in vivo. To be noted: 2 mM in drinking water. The protocol: The tumor inhibitory effect of stable nitroxides were studied in vivo using mice with mutations in the Prkdc gene (SCID, which is associated severe combined immunodeficiency), and bg (BEIGE) gene. Twenty female SCID/BEIGE mice (C.B-Igh-1b/GbmsTac-Prkdc^scid-Lyst^bg N7 (CBSCBG) from Taconic (Hudson, N.Y.)) were injected with about 8 million 786-0 (VHL−/−) cells subcutaneously on the right flank. Starting on the day of injection, Tempol was diluted in PBS and added twice a week to the water bottle feeding a group of ten injected mice. The final concentration of Tempol in water was 2 mM. The control group of ten remaining mice received an equivalent amount of PBS in water twice a week. The volume of the tumors and weight of the mice were recorded once a week for up to 100 days. When the control group tumor volume reached 1 cm^3, tumors of 8 mice maintained as controls were harvested. At the same time, 4 of the animals maintained on Tempol were harvested and fast-frozen or paraffin embedded for further experiments. The average tumor volume as a function of time for each group is depicted in FIG. 2.

Another test has as its system 786-0 cells (VHL−/−). Put plainly: 786-0 (VHL−/−) subcutaneous tumor growth in SCID/BEIGE mice, Tempol in chow. The format is in vivo. To be noted: 10 mg/g of food, after ten weeks, compared to control mice fed normal chow (P<0.05). The protocol:
Twenty female SCID/BEIGE mice were injected with 786-0 cells (VHL−/−) subcutaneously on the right flank, as described in Example 2. Starting on the day of injection, a control group of ten injected mice were fed standard chow (NIH-031, Zeigler Brothers, Inc. (Gardners, Pa.)) and a group ten injected mice received chow supplemented with Tempol. The Tempol diet supplement was made by a cold press technique from powdered Tempol uniformly mixed with bacon-flavored mouse chow (Bio-Serv Inc. (Frenchtown, N.J.)) providing a Tempol concentration of 10 mg/g of food. Bacon-flavored chow without Tempol was also added to the control diet. The volume of the tumors and the weight of the mice were recorded once a week for more than ten weeks. Tumor volumes as a function of time are depicted in FIG. 3. When the tumor volumes of the control group reached 1 cm^3, the tumors of all mice were harvested and fast-frozen or paraffin embedded for further experiments.

The next test relates to HIF-2α. Put plainly: Western blot of HIF-2α in nuclear proteins of 786-0 RCC cells. The format is cell-based, human. Conditions: 786-0 cells, 5 mM, two to four hours, compared to Tempol-H or growth medium (control). How it is done:
The human sporadic RCC cell line 786-0 was obtained from the American Tissue Culture Collection (ATCC) (Manassas, Va.). This cell line contains a single inactivated VHL allele, produces no VHL protein, is deficient for HIF-la expression, and constitutively expresses HIF-2α. Gnarra et al., Nat. Genet., 7: 85-90 (1994) and Maxwell et al., Nature, 399: 271-275 (1999). Cultures of 786-0 cells were pre-incubated for one hour in KREB's buffer (115 mM NaCl, 5.9 mM KCl, 1.2 mM MgCl2, 1.2 mM NaH2PO4, 1.2 mM Na2SO4, 2.5 mM CaCl2, and 25 mM NaHCO3) at pH 7.4 and with 4.5 g/L of glucose. Cells were then treated for two to four hours with (i) Tempol (5 mM) obtained from Sigma Aldrich (St. Louis, Mo.), (ii) its non-functional hydroxylamine (protonated, reduced) variant: 1,4-dihydroxy-2,2,6,6-tetramethylpiperidine (Tempol-H) (5 mM) (Sigma Aldrich), or (iii) growth medium as a negative control. Cells were harvested, nuclear protein extractions performed, and protein concentrations were measured by BCA assay from Pierce (Rockford, Ill.). Aliquots of extracted nuclear proteins (20 μg) were loaded in a 7.5% polyacrylamide gel and separated by sodium dodecyl sulfate polyacrylamide gel electrophoresis (SDS-PAGE). Proteins were transferred to PVDF membranes, which were then blocked for one to sixteen hours in a solution of 5% dry milk. […]

The test system of a further test is HIF2 α. Put plainly: HIF-2α levels in eight other cell lines from patients with VHL mutations. The format is cell-based, human. Conditions: Tempol treatment.

For the compound `CC1(C)CC(O)CC(C)(C)N1[O]` [Tempol, 4-hydroxy-2,2,6,6-tetramethylpiperidine-1-oxyl], in the test with 786-0 (VHL−/−) cells (80 days, versus control animals), the “tumor size when sacrificed at the 80 day time point” value is given as “smaller tumors”. Besides, the “average tumor volume as compared to the control group” value in the test on 786-0 (VHL−/−) cells (SCID/BEIGE mice, up to 100 days) is “markedly lower average tumor volume”. Also, in the test on 786-0 (VHL−/−) cells (four mice maintained up to 100 days), the “tumor size at 100 days” value is given as “quite small”. Besides, the tumor growth entry in the test with 786-0 cells (VHL−/−) was “reduced by a statistically significant amount”. For the same compound, the HIF-2α levels entry in the test with HIF-2α was “significantly reduced”. Besides, in the test with HIF2 α, the “HIF2 α levels” value is “reduced HIF2 α levels significantly”.
